Measurements as given in ChEMBL document CHEMBL1201862, “PubChem BioAssay data set” (2004).
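The compound was tested at five concentrations on cells cultured in 96-well plates, with a 48-hour exposure period. The concentration for 50% growth inhibition is given as GI50.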 Activity calls are given as the source filed them. Rule as the data show it: active = GI50 up to about 1.1 µM and inactive = higher. Where a SMILES comes first, the peptide text is derived from it. The star is where a group is joined. Boc = CC(C)(C)OC(=O)*; nBu = CCCC*

Experiments:
Assay in all cases: growth of human tumour cells (NCI), 48 h
SNB-19 = tested on: SNB-19
OVCAR-8 = tested on: OVCAR-8
SN12C = tested on: SN12C
IGROV-1 = tested on: IGROV-1
HCT-116 = tested on: HCT-116
CCRF-CEM = tested on: CCRF-CEM
NCI-H23 = tested on: NCI-H23
CAKI-1 = tested on: CAKI-1
NCI-H460 = tested on: NCI-H460
A549 = tested on: A549
Malme-3M = tested on: Malme-3M
SF-268 = tested on: SF-268
MDA-MB-231 = tested on: MDA-MB-231
HL-60 = tested on: HL-60
U-251 = tested on: U-251
PC-3 = tested on: PC-3
SK-MEL-28 = tested on: SK-MEL-28
ACHN = tested on: ACHN
RXF 393 = tested on: RXF 393
786-0 = tested on: 786-0

Structure (SMILES)	GI50 (SNB-19)	GI50 (OVCAR-8)	GI50 (SN12C)	GI50 (IGROV-1)	GI50 (HCT-116)	GI50 (CCRF-CEM)	GI50 (NCI-H23)	GI50 (CAKI-1)	GI50 (NCI-H460)	GI50 (A549)	GI50 (Malme-3M)	GI50 (SF-268)	GI50 (MDA-MB-231)	GI50 (HL-60)	GI50 (U-251)	GI50 (PC-3)	GI50 (SK-MEL-28)	GI50 (ACHN)	GI50 (RXF 393)	GI50 (786-0)
COC1C(O)C(C)OC(O[C@@H]2C[C@H]3CC[C@@H]4[C@H](CC[C@]5(C)[C@@H](C6=CC(=O)OC6)CC[C@]45O)[C@@]3(C)[C@H](O)C2)C1O (some centres undefined)	0.264 µM (active)	0.0472 µM (active)	< 0.01 µM (active)	0.145 µM (active)	< 0.0225 µM (active)	0.0559 µM (active)	0.0262 µM (active)	0.0225 µM (active)	0.0347 µM (active)	< 0.0221 µM (active)	< 0.0396 µM (active)	< 0.0272 µM (active)	0.313 µM (active)	< 0.04 µM (active)	0.0849 µM (active)	0.0755 µM (active)	0.216 µM (active)	< 0.0212 µM (active)	< 0.0161 µM (active)	0.149 µM (active)
CCN1CCCCCCCCCC(=N/O)/C(=N\O)C1	> 100 µM (inactive)	> 100 µM (inactive)	> 100 µM (inactive)	> 100 µM (inactive)	> 100 µM (inactive)	> 100 µM (inactive)	> 100 µM (inactive)	> 100 µM (inactive)	> 100 µM (inactive)	> 100 µM (inactive)	> 100 µM (inactive)	> 100 µM (inactive)	> 100 µM (inactive)	> 100 µM (inactive)	> 100 µM (inactive)	> 100 µM (inactive)	> 100 µM (inactive)	> 100 µM (inactive)	> 100 µM (inactive)	> 100 µM (inactive)
CC(C)(C)c1ccc(OCCOc2ccc(C(C)(C)C)cc2NC=O)c(NC=O)c1	18.2 µM (inactive)	11.8 µM (inactive)	15 µM (inactive)	11.3 µM (inactive)	6.43 µM (inactive)	2.06 µM (inactive)	7.11 µM (inactive)	19.4 µM (inactive)	4.01 µM (inactive)	5.73 µM (inactive)	8.79 µM (inactive)	15.1 µM (inactive)	11.4 µM (inactive)	6.04 µM (inactive)	6.82 µM (inactive)	8.71 µM (inactive)	12.3 µM (inactive)	7.78 µM (inactive)	8.77 µM (inactive)	8.17 µM (inactive)
CC(C)(C)OC(=O)N1CCCC1C(=O)NC(c1ccccc1)c1ccccc1 (centres undefined)	> 100 µM (inactive)	> 100 µM (inactive)	> 100 µM (inactive)	> 100 µM (inactive)	> 100 µM (inactive)	> 100 µM (inactive)	> 100 µM (inactive)	> 100 µM (inactive)	> 100 µM (inactive)	> 100 µM (inactive)	> 100 µM (inactive)	> 100 µM (inactive)	> 100 µM (inactive)	> 100 µM (inactive)	> 100 µM (inactive)	> 100 µM (inactive)	> 100 µM (inactive)	> 100 µM (inactive)	> 100 µM (inactive)	> 100 µM (inactive)
CC(=O)Oc1ccccc1/C=C/C(=O)/C=C/c1ccccc1OC(C)=O	2.39 µM (inactive)	1.94 µM (inactive)	1.9 µM (inactive)	2 µM (inactive)	0.239 µM (active)	0.501 µM (active)	1.73 µM (inactive)	3.75 µM (inactive)	2.05 µM (inactive)	2.26 µM (inactive)	2.81 µM (inactive)	1.71 µM (inactive)	2.66 µM (inactive)	0.748 µM (active)	1.51 µM (inactive)	1.65 µM (inactive)	1.97 µM (inactive)	1.8 µM (inactive)	0.126 µM (active)	1.79 µM (inactive)
Cc1ccc2[nH]c3c(C)c4cc[n+](C)cc4c(C)c3c2c1	0.499 µM (active)	0.612 µM (active)	0.271 µM (active)	1.19 µM (inactive)	1.36 µM (inactive)	3.06 µM (inactive)	1.23 µM (inactive)	3.59 µM (inactive)	3.66 µM (inactive)	0.325 µM (active)	1.38 µM (inactive)	0.441 µM (active)	0.931 µM (active)	5.12 µM (inactive)	0.41 µM (active)	0.63 µM (active)	2.12 µM (inactive)	4.92 µM (inactive)	1.42 µM (inactive)	0.328 µM (active)
COc1ccc2c(c1)[n+]([O-])c(/C(C)=N/NC(N)=S)c(C)[n+]2[O-]	> 100 µM (inactive)	46.3 µM (inactive)	39.4 µM (inactive)	> 88.1 µM (inactive)	39.9 µM (inactive)	27.6 µM (inactive)	> 67.9 µM (inactive)	70.5 µM (inactive)	27.8 µM (inactive)	53.7 µM (inactive)	75.7 µM (inactive)	46.3 µM (inactive)	89.7 µM (inactive)	1.5 µM (inactive)	44.4 µM (inactive)	> 100 µM (inactive)	> 56.2 µM (inactive)	38.5 µM (inactive)	> 72.9 µM (inactive)	43.6 µM (inactive)
C(=N\c1ccc(-c2cc(-c3ccccc3)nc3ccc4ccccc4c23)cc1)/c1ccccc1	18.5 µM (inactive)	26 µM (inactive)	8.39 µM (inactive)	37.3 µM (inactive)	16.6 µM (inactive)	16 µM (inactive)	27.6 µM (inactive)	23.3 µM (inactive)	19.9 µM (inactive)	13.6 µM (inactive)	30.5 µM (inactive)	7.48 µM (inactive)	11.2 µM (inactive)	9.48 µM (inactive)	36.5 µM (inactive)	13.2 µM (inactive)	14.1 µM (inactive)	34.6 µM (inactive)	9.68 µM (inactive)	19.5 µM (inactive)
CCOC(=O)C(CC(C)C)NC(=O)C(Cc1ccc(N(CCCl)CCCl)cc1)NC(C)=O (centres undefined)	14 µM (inactive)	8.63 µM (inactive)	2.45 µM (inactive)	11.2 µM (inactive)	18.7 µM (inactive)	0.621 µM (active)	4.24 µM (inactive)	1.29 µM (inactive)	2.75 µM (inactive)	13.4 µM (inactive)	2.44 µM (inactive)	4.07 µM (inactive)	5.86 µM (inactive)	0.426 µM (active)	7.91 µM (inactive)	15.8 µM (inactive)	5.64 µM (inactive)	2.08 µM (inactive)	1.93 µM (inactive)	2.02 µM (inactive)
NC(=O)C(=O)c1ncn(Cc2ccccc2)c1N	> 100 µM (inactive)	> 100 µM (inactive)	> 100 µM (inactive)	> 100 µM (inactive)	> 100 µM (inactive)	> 100 µM (inactive)	> 100 µM (inactive)	> 100 µM (inactive)	> 100 µM (inactive)	> 100 µM (inactive)	> 100 µM (inactive)	> 100 µM (inactive)	> 100 µM (inactive)	> 100 µM (inactive)	> 100 µM (inactive)	> 100 µM (inactive)	> 100 µM (inactive)	> 100 µM (inactive)	> 100 µM (inactive)	> 100 µM (inactive)
CO/C=C(/C(=O)OC)[C@@H]1C[C@@H]1c1ccc2ccccc2c1	56.5 µM (inactive)	34 µM (inactive)	32.7 µM (inactive)	20.5 µM (inactive)	18.1 µM (inactive)	27.6 µM (inactive)	28.2 µM (inactive)	21.6 µM (inactive)	27.2 µM (inactive)	18.7 µM (inactive)	20.2 µM (inactive)	24.9 µM (inactive)	26.3 µM (inactive)	18.3 µM (inactive)	27.4 µM (inactive)	27.7 µM (inactive)	23.4 µM (inactive)	25.9 µM (inactive)	44.1 µM (inactive)	33.5 µM (inactive)
COC(=O)Nc1nc2ccc(S(=O)(=O)SC)cc2[nH]1	7.55 µM (inactive)	5.13 µM (inactive)	10.9 µM (inactive)	3.37 µM (inactive)	4.68 µM (inactive)	3.52 µM (inactive)		4.88 µM (inactive)	5.2 µM (inactive)	8.11 µM (inactive)	9.89 µM (inactive)	16.5 µM (inactive)	11.6 µM (inactive)	2.38 µM (inactive)	5.51 µM (inactive)	4.42 µM (inactive)	8.28 µM (inactive)	10.2 µM (inactive)	5.46 µM (inactive)	5.09 µM (inactive)
CCCCOc1ccc(CC(NC(=O)OC(C)(C)C)C(=O)NC(C)C(=O)NC(Cc2ccccc2)C(=O)NCC(N)=O)cc1 (centres undefined) (Boc-Y(nBu)AFG-NH2; configuration not given here)	> 100 µM (inactive)	> 100 µM (inactive)	> 100 µM (inactive)	31.3 µM (inactive)	> 100 µM (inactive)	24.3 µM (inactive)	> 100 µM (inactive)	> 100 µM (inactive)	> 100 µM (inactive)	> 100 µM (inactive)	> 100 µM (inactive)	> 100 µM (inactive)	82.4 µM (inactive)	22 µM (inactive)	59.4 µM (inactive)	> 100 µM (inactive)	91 µM (inactive)	> 100 µM (inactive)	> 100 µM (inactive)	> 100 µM (inactive)
O=C1C(S(=O)(=O)c2ccccc2)=C(CS(=O)(=O)c2ccccc2)[C@@H](OCc2ccccc2)[C@@H]1OCc1ccccc1	34.3 µM (inactive)	18.5 µM (inactive)	22.3 µM (inactive)	17.1 µM (inactive)	13.6 µM (inactive)	14 µM (inactive)	16.9 µM (inactive)	30.1 µM (inactive)	21 µM (inactive)	27.7 µM (inactive)	17.6 µM (inactive)	29.9 µM (inactive)	23.9 µM (inactive)	17.1 µM (inactive)	19.6 µM (inactive)	25.8 µM (inactive)	18.1 µM (inactive)	31.8 µM (inactive)	13.9 µM (inactive)	26.4 µM (inactive)
